In brackets after ≈: the same amount, converted by molar mass. Activity calls are given as the source filed them. The calls are words filed in the database; no cut-off is given here.
Tested on: Staphylococcus aureus
Test: Antibacterial activity against Staphylococcus aureus MTCC 2940 by modified microtiter broth dilution method
Type: functional
Details: not given
For COC(=O)Cc1cc(O)cc2oc(-c3ccc(OC)c(O)c3)cc(=O)c12, the MIC was 37 µg/mL (≈ 104 µM).
Compound COC(=O)Cc1cc(O)cc2oc(-c3ccc(O)c(OC)c3)cc(=O)c12 has an MIC of 18 µg/mL (≈ 50.5 µM).
For COC(=O)Cc1cc(O)cc2oc(-c3ccc(O)c(O)c3)cc(=O)c12, the MIC was 9 µg/mL (≈ 26.3 µM).
For COC(=O)Cc1cc(O)cc2oc(-c3ccc(C)cc3)cc(=O)c12, the MIC was 18 µg/mL (≈ 55.5 µM).
With COC(=O)Cc1cc(O)cc2oc(-c3cc(OC)cc(OC)c3)cc(=O)c12 the MIC was 18 µg/mL (≈ 48.6 µM).

Tested on: Bacillus subtilis
Test: Antibacterial activity against Bacillus subtilis MTCC 121 by modified microtiter broth dilution method
Type: functional
Details: not given
In the case of COC(=O)Cc1cc(O)cc2oc(-c3ccc(O)c(OC)c3)cc(=O)c12, the MIC was 4 µg/mL (≈ 11.2 µM).
In the case of COC(=O)Cc1cc(O)cc2oc(-c3ccc(C)cc3)cc(=O)c12, the MIC was 4 µg/mL (≈ 12.3 µM).
COC(=O)Cc1cc(O)cc2oc(-c3cc(OC)cc(OC)c3)cc(=O)c12 gave an MIC of 18 µg/mL (≈ 48.6 µM).

Tested on: Bacillus subtilis
Test: Antibacterial activity against Bacillus subtilis MTCC 121 at 80 ug/ml by modified microtiter broth dilution method
Type: functional, organism-based
Details: not given
With COC(=O)Cc1cc(O)cc2oc(-c3ccc(OC)c(O)c3)cc(=O)c12 the Activity was “inactive”.
In the case of COC(=O)Cc1cc(O)cc2oc(-c3ccc(O)c(O)c3)cc(=O)c12, the Activity was “inactive”.

Tested on: Staphylococcus aureus
Test: Antibacterial activity against Staphylococcus aureus MTCC 96 by modified microtiter broth dilution method
Type: functional
Details: not given
With COC(=O)Cc1cc(O)cc2oc(-c3ccc(O)c(OC)c3)cc(=O)c12 the MIC was 9 µg/mL (≈ 25.3 µM).
For COC(=O)Cc1cc(O)cc2oc(-c3ccc(C)cc3)cc(=O)c12, the MIC was 9 µg/mL (≈ 27.7 µM).
For COC(=O)Cc1cc(O)cc2oc(-c3cc(OC)cc(OC)c3)cc(=O)c12, the MIC was 9 µg/mL (≈ 24.3 µM).

Tested on: Staphylococcus aureus
Test: Antibacterial activity against Staphylococcus aureus MTCC 96 at 80 ug/ml by modified microtiter broth dilution method
Type: functional, organism-based
Details: not given
For COC(=O)Cc1cc(O)cc2oc(-c3ccc(OC)c(O)c3)cc(=O)c12, the Activity was “inactive”.
With COC(=O)Cc1cc(O)cc2oc(-c3ccc(O)c(O)c3)cc(=O)c12 the Activity was “inactive”.

Tested on: Micrococcus luteus
Test: Antibacterial activity against Micrococcus luteus MTCC 2470 by modified microtiter broth dilution method
Type: functional
Details: not given
Compound COC(=O)Cc1cc(O)cc2oc(-c3ccc(O)c(OC)c3)cc(=O)c12 has an MIC of 18 µg/mL (≈ 50.5 µM).
For COC(=O)Cc1cc(O)cc2oc(-c3ccc(C)cc3)cc(=O)c12, the MIC was 18 µg/mL (≈ 55.5 µM).
Compound COC(=O)Cc1cc(O)cc2oc(-c3cc(OC)cc(OC)c3)cc(=O)c12 has an MIC of 9 µg/mL (≈ 24.3 µM).

Tested on: Micrococcus luteus
Test: Antibacterial activity against Micrococcus luteus MTCC 2470 at 80 ug/ml by modified microtiter broth dilution method
Type: functional, organism-based
Details: not given
In the case of COC(=O)Cc1cc(O)cc2oc(-c3ccc(OC)c(O)c3)cc(=O)c12, the Activity was “inactive”.
With COC(=O)Cc1cc(O)cc2oc(-c3ccc(O)c(O)c3)cc(=O)c12 the Activity was “inactive”.

Tested on: Raoultella planticola
Test: Antibacterial activity against Klebsiella planticola MTCC 530 by modified microtiter broth dilution method
Type: functional
Details: not given
Compound COC(=O)Cc1cc(O)cc2oc(-c3ccc(O)c(OC)c3)cc(=O)c12 has an MIC of 9 µg/mL (≈ 25.3 µM).
With COC(=O)Cc1cc(O)cc2oc(-c3ccc(C)cc3)cc(=O)c12 the MIC was 18 µg/mL (≈ 55.5 µM).
COC(=O)Cc1cc(O)cc2oc(-c3cc(OC)cc(OC)c3)cc(=O)c12 gave an MIC of 18 µg/mL (≈ 48.6 µM).

Tested on: Raoultella planticola
Test: Antibacterial activity against Klebsiella planticola MTCC 530 at 80 ug/ml by modified microtiter broth dilution method
Type: functional, organism-based
Details: not given
In the case of COC(=O)Cc1cc(O)cc2oc(-c3ccc(OC)c(O)c3)cc(=O)c12, the Activity was “inactive”.
With COC(=O)Cc1cc(O)cc2oc(-c3ccc(O)c(O)c3)cc(=O)c12 the Activity was “inactive”.

Tested on: Escherichia coli
Test: Antibacterial activity against Escherichia coli MTCC 739 by modified microtiter broth dilution method
Type: functional
Details: not given
COC(=O)Cc1cc(O)cc2oc(-c3ccc(OC)c(O)c3)cc(=O)c12 showed an MIC of 18 µg/mL (≈ 50.5 µM).
Work on COC(=O)Cc1cc(O)cc2oc(-c3ccc(O)c(OC)c3)cc(=O)c12 yielded an MIC of 4 µg/mL (≈ 11.2 µM).
In the case of COC(=O)Cc1cc(O)cc2oc(-c3ccc(C)cc3)cc(=O)c12, the MIC was 4 µg/mL (≈ 12.3 µM).
For COC(=O)Cc1cc(O)cc2oc(-c3cc(OC)cc(OC)c3)cc(=O)c12, the MIC was 4 µg/mL (≈ 10.8 µM).

Tested on: Escherichia coli
Test: Antibacterial activity against Escherichia coli MTCC 739 at 80 ug/ml by modified microtiter broth dilution method
Type: functional, organism-based
Details: not given
In the case of COC(=O)Cc1cc(O)cc2oc(-c3ccc(O)c(O)c3)cc(=O)c12, the Activity was “inactive”.

Tested on: Pseudomonas aeruginosa
Test: Antibacterial activity against Pseudomonas aeruginosa MTCC 2453 by modified microtiter broth dilution method
Type: functional
Details: not given
Compound COC(=O)Cc1cc(O)cc2oc(-c3ccc(OC)c(O)c3)cc(=O)c12 has an MIC of 9 µg/mL (≈ 25.3 µM).
COC(=O)Cc1cc(O)cc2oc(-c3ccc(O)c(OC)c3)cc(=O)c12 gave an MIC of 9 µg/mL (≈ 25.3 µM).
In the case of COC(=O)Cc1cc(O)cc2oc(-c3ccc(O)c(O)c3)cc(=O)c12, the MIC was 9 µg/mL (≈ 26.3 µM).
Work on COC(=O)Cc1cc(O)cc2oc(-c3ccc(C)cc3)cc(=O)c12 yielded an MIC of 9 µg/mL (≈ 27.7 µM).
Work on COC(=O)Cc1cc(O)cc2oc(-c3cc(OC)cc(OC)c3)cc(=O)c12 yielded an MIC of 9 µg/mL (≈ 24.3 µM).

Tested on: Radical scavenging activity
Test: Antioxidant activity assessed as DPPH free radical scavenging activity
Type: functional
Details: not given
With COC(=O)Cc1cc(O)cc2oc(-c3ccc(O)c(O)c3)cc(=O)c12 the EC50 was 49.99 µg/mL (≈ 146 µM).

Tested on: not listed separately
Test: Antioxidant activity assessed as superoxide radical scavenging activity
Type: functional
Details: not given
With COC(=O)Cc1cc(O)cc2oc(-c3ccc(O)c(O)c3)cc(=O)c12 the EC50 was 44.08 µg/mL (≈ 129 µM).

Tested on: not listed separately
Test: Antioxidant activity of the compound assessed as inhibition of lipid peroxidation
Type: functional
Details: not given
In the case of COC(=O)Cc1cc(O)cc2oc(-c3ccc(O)c(O)c3)cc(=O)c12, the EC50 was 142 µg/mL (≈ 415 µM).

Tested on: not listed separately
Test: Antioxidant activity in erythrocytes assessed as inhibition of hemolysis
Type: functional, cell-based
Details: erythrocyte
Compound COC(=O)Cc1cc(O)cc2oc(-c3ccc(O)c(O)c3)cc(=O)c12 has an EC50 of 127.98 µg/mL (≈ 374 µM).

Tested on: Radical scavenging activity
Test: Antioxidant activity assessed as DPPH free radical scavenging activity after 48 hrs
Type: functional
Details: not given
In the case of COC(=O)Cc1cc(O)cc2oc(-c3ccc(OC)c(O)c3)cc(=O)c12, the Activity was “inactive”.
In the case of COC(=O)Cc1cc(O)cc2oc(-c3ccc(O)c(OC)c3)cc(=O)c12, the Activity was “inactive”.
In the case of COC(=O)Cc1cc(O)cc2oc(-c3ccc(C)cc3)cc(=O)c12, the Activity was “inactive”.
For COC(=O)Cc1cc(O)cc2oc(-c3cc(OC)cc(OC)c3)cc(=O)c12, the Activity was “inactive”.

Tested on: not listed separately
Test: Antioxidant activity assessed as superoxide radical scavenging activity after 48 hrs
Type: functional
Details: not given
With COC(=O)Cc1cc(O)cc2oc(-c3ccc(OC)c(O)c3)cc(=O)c12 the Activity was “inactive”.
For COC(=O)Cc1cc(O)cc2oc(-c3ccc(O)c(OC)c3)cc(=O)c12, the Activity was “inactive”.
With COC(=O)Cc1cc(O)cc2oc(-c3ccc(C)cc3)cc(=O)c12 the Activity was “inactive”.
In the case of COC(=O)Cc1cc(O)cc2oc(-c3cc(OC)cc(OC)c3)cc(=O)c12, the Activity was “inactive”.

Tested on: not listed separately
Test: Antioxidant activity of the compound assessed as inhibition of lipid peroxidation after 48 hrs
Type: functional
Details: not given
In the case of COC(=O)Cc1cc(O)cc2oc(-c3ccc(OC)c(O)c3)cc(=O)c12, the Activity was “inactive”.
For COC(=O)Cc1cc(O)cc2oc(-c3ccc(O)c(OC)c3)cc(=O)c12, the Activity was “inactive”.
With COC(=O)Cc1cc(O)cc2oc(-c3ccc(C)cc3)cc(=O)c12 the Activity was “inactive”.
For COC(=O)Cc1cc(O)cc2oc(-c3cc(OC)cc(OC)c3)cc(=O)c12, the Activity was “inactive”.

Tested on: Erythrocyte
Test: Antioxidant activity in erythrocytes assessed as inhibition of hemolysis after 48 hrs
Type: functional, cell-based
Details: not given
In the case of COC(=O)Cc1cc(O)cc2oc(-c3ccc(OC)c(O)c3)cc(=O)c12, the Activity was “inactive”.
With COC(=O)Cc1cc(O)cc2oc(-c3ccc(O)c(OC)c3)cc(=O)c12 the Activity was “inactive”.
In the case of COC(=O)Cc1cc(O)cc2oc(-c3ccc(C)cc3)cc(=O)c12, the Activity was “inactive”.
In the case of COC(=O)Cc1cc(O)cc2oc(-c3cc(OC)cc(OC)c3)cc(=O)c12, the Activity was “inactive”.

Tested on: not listed separately
Test: Chemical stability of the compound in antioxidant reaction
Type: physicochemical
Details: not given
In the case of COC(=O)Cc1cc(O)cc2oc(-c3ccc(OC)c(O)c3)cc(=O)c12, the Stability was “Unstable”.
With COC(=O)Cc1cc(O)cc2oc(-c3ccc(O)c(OC)c3)cc(=O)c12 the Stability was “Unstable”.
In the case of COC(=O)Cc1cc(O)cc2oc(-c3ccc(C)cc3)cc(=O)c12, the Stability was “Unstable”.
In the case of COC(=O)Cc1cc(O)cc2oc(-c3cc(OC)cc(OC)c3)cc(=O)c12, the Stability was “Unstable”.

Tested on: NCI60
Test: Cytotoxicity against human NCI60 cells
Type: functional, cell-based
Details: not given
With COC(=O)Cc1cc(O)cc2oc(-c3ccc(OC)c(O)c3)cc(=O)c12 the Activity was “inactive”.
For COC(=O)Cc1cc(O)cc2oc(-c3ccc(O)c(OC)c3)cc(=O)c12, the Activity was “inactive”.
For COC(=O)Cc1cc(O)cc2oc(-c3ccc(C)cc3)cc(=O)c12, the Activity was “inactive”.
In the case of COC(=O)Cc1cc(O)cc2oc(-c3cc(OC)cc(OC)c3)cc(=O)c12, the Activity was “inactive”.

Reference: ChEMBL document CHEMBL2046382, “Synthesis, biological evaluation of 5-carbomethoxymethyl-7-hydroxy-2-pentylchromone, 5-carboethoxymethyl-4',7-dihydroxyflavone and their analogues” (Bioorg Med Chem Lett, 2012)
